{
  "source": "patent US9649378B2",
  "about": "“Cancer methods” (priority 2010, dated 2017)",
  "key": {"[1]": {"tested_on": "HER2 3+ recurrent disease (ovarian and breast cancer)", "assay": "response to lapatinib in patients by RECIST criteria versus OPCML IHC", "type": "in vivo, human", "design": "key: SD = stable disease; PR = partial response; PD = progressive disease", "settings": "individual cases 1-8, HER2 3+", "experimental": "We next tested whether OPCML could be used to predict response to lapatinib in ovarian and breast cancer. Histology was obtained by new biopsy of recurrent disease and TTP (time in months to progression from start of therapy until progression) assessed. Docetaxel and anthracyclines were administered for a maximum of 6 cycles and capecitabine was administered until disease progression or unacceptable toxicity. HER2 immunohistochemistry (IHC) was performed using the Dako Herceptest kit: 3+ in all cases."}, "[2]": {"tested_on": "phospho-ERK", "assay": "lapatinib-induced pERK attenuation after OPCML siRNA knockdown in OSE-C2 cells", "quoted_text": "(§4) (B) The effect of OPCML knockdown on the efficiency of lapatinib-induced pERK attenuation was analysed; densitometry of pERK signal (mean values of 3 independent experiments).\nEndogenous OPCML was knocked down in OSE-C2 cells by transient transfection of a specific pool of 3 siRNAs (Stealth knockdown-Invitrogen) using lipofectamine RNAiMAX reagent.\nWe then investigated whether siRNA knockdown of physiological OPCML expression in normal OSE-C2 cells could affect sensitivity to lapatinib."}, "[3]": {"tested_on": "phospho-ERK", "assay": "EGF induced phospho-ERK activation in OPCML transfected (BKS2.1) and control (SKOBS-V1.2) cells", "quoted_text": "as §4\nOPCML transfected and control cells were pre-incubated with lapatinib, trastuzumab, cituximab, erlotinib and gefitinib."}, "[4]": {"tested_on": "FGFR1", "sequence (P11362 22-376 limits assumed)": "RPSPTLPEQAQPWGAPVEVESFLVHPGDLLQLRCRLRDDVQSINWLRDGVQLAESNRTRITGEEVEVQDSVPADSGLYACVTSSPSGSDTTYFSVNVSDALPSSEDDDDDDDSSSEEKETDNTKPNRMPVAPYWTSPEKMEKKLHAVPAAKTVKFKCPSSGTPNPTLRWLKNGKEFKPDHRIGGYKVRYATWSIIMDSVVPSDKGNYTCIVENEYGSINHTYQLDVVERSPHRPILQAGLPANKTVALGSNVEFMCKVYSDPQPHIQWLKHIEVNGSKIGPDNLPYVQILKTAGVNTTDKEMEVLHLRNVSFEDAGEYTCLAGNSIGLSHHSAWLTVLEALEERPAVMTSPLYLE", "assay": "GST-OPCML pull-down assay", "type": "binding", "settings": "lysate of FGFR1 transfected cells or FGFR1 ECD protein", "experimental": "(§1) FIG. 2: OPCML interacts with the ECD of HER2 and FGFR1 but not EGFR. (A) (i): Co-IP was performed using protein extracts from SKOBS-V1.2, SKOBS-3.5 and BKS2.1 (SKOBS-3.5 and BKS2.1 express 3 and 20-fold more OPCML protein than normal physiological levels seen in OSE-C2). The goat polyclonal anti-OPCML (R & D Systems) was used in initial IP and products were detected on Western blots employing respective Abs for EGFR and HER2. The reciprocal IP with a monoclonal to ECD of HER2 (Calbiochem) is shown with successful immunoblotting for OPCML in the BKS2.1 stable line (expressing 20-fold more OPCML); (ii) Co-IP using the OPCML Ab in SKOBS-V1.2 and BKS2.1 lines were immunoblotted with anti-FGFR1αECD Ab. (B) A structural representation of GST-OPCML 1+2 and GST-OPCML 1+2+3 constructs with subsequent Western blot analysis of the fusion proteins. […] FGFR1 was also shown to bind GST-OPCML 1+2+3 and GST-OPCML 1+2 from the same pull-down with lysate from SK-OV-3 cells transiently transfected with FGFR1 cDNA.\n(§2) FIG. 17: OPCML directly interacts with EphA2, FGFR1 and HER2, but not EGFR. (A) Immuno-precipitation (IP) for OPCML showing positive immunoblots for EphA2, FGFR1 and HER2. […] (B) A schematic representation of GST-OPCML domain 1-3 construct. (C). […] The presence of OPCML fusion proteins in these assays was verified by immunoblotting (IB, bottom panel).\n(§3) Pull-down assays were performed using recombinant GST-OPCML fusion proteins bound to magnetic glutathione beads (Promega). Cell lysates prepared as for immunoprecipitation, proteins produced using TNT in vitro Rabbit reticulocyte lysate expression system (Promega) or expressed in bacteria were used analysed for interactions."}, "[5]": {"biological_target": "T1, EGFR (Homo sapiens, UniProt P00533)", "T1 construct": "pull-down experiments with either SK-OV-3 cell lysates (expressing HER2 and EGFR); endogenous in cells; host or cells: SK-OV-3", "assay": "GST-OPCML pull-down assay", "type": "binding", "settings": "SK-OV-3 cell lysate", "experimental": "as §1, §2, §3"}, "[6]": {"tested_on": "HER2", "assay": "GST-OPCML pull-down assay", "type": "binding", "settings": "SK-OV-3 lysate or in vitro translated HER2ECD", "experimental": "as §1, §2, §3"}, "[7]": {"tested_on": "OPCML", "assay": "induction of OPCML expression by growth factors in serum starved SK-OV-3 cells (qRT-PCR, Western)", "type": "cell-based", "settings": "50 ng/ml EGF", "quoted_text": "Quantitative reverse-transcription PCR (qRT-PCR) analysis of gene expression was carried out on an Applied Biosystems 7900HT thermal cycler using SYBR green I technology. Premixed qPCR reagent, Platinum® Quantitative PCR SuperMix-UDG with ROX (Invitrogen, UK), was used for amplification. The expression of specific genes was normalized to the expression of the endogenous control gene HPRT1."}, "[8]": {"tested_on": "OPCML", "assay": "induction of OPCML expression by growth factors in a panel of ovarian cancer cell lines", "type": "cell-based", "settings": "data not shown", "source_text": "OPCML is a non-transmembrane, external lipid leaflet GPI-anchored protein, and is frequently lost from cells by somatic inactivation of the gene."}, "[9]": {"settings": "OPCML transfected versus control cells, EGF induced phospho-ERK"}},
  "note": "“And” between values parts separate entries of the source, which are not always exact repeats. Equal entries are not always repeated. Where two headings read alike, the source gives them in different places.",
  "data": [
    {"compound": "CS(=O)(=O)CCNCc1ccc(-c2ccc3ncnc(Nc4ccc(OCc5cccc(F)c5)c(Cl)c4)c3c2)o1.Cc1ccc(S(=O)(=O)O)cc1.Cc1ccc(S(=O)(=O)O)cc1.O", "note": "[lapatinib, N-(3 chloro-4-{[(3-fluorophenyl)methyl]oxy}phenyl)-6-[5-({[2(methylsulfonyl)ethyl]amino}methyl)-2-furanyl]-4-quinazolinamine bis (4 methylbenzenesulfonate) monohydrate]", "values": [
      {"measurement": "Response to lapatinib", "setting": "[1]", "value": "SD (2×) and PD (2×) and PR (4×)"},
      {"measurement": "extent of inhibition of pERK signal", "setting": "[2]; knockdown by siRNA to OPCML, P=0.0009", "value": 47, "unit": "%"},
      {"measurement": "reduction of EGF-induced pERK signal", "setting": "[2]; non-silencing (non-si) duplex, densitometry, mean of 3 experiments", "value": 70, "unit": "%"},
      {"measurement": "increase in sensitivity: reduction of effective concentration required to abolish the phospho-ERK signal", "setting": "[3]; BKS2.1 compared with SKOBS-V1.2, EGF 50 ng/ml, monohydrate", "value": "> 10 fold and 10 fold"},
      {"measurement": "OPCML mediated sensitization", "setting": "[3]; [9]", "value": "strong OPCML mediated sensitization"}
    ]},
    {"compound": "C#Cc1cccc(Nc2ncnc3cc(OCCOC)c(OCCOC)cc23)c1", "note": "[erlotinib]", "values": [
      {"measurement": "OPCML mediated sensitization", "setting": "[3]", "value": "no sensitization"}
    ]},
    {"compound": "GST-OPCML D1+2: truncated OPCML ECD lacking Ig domain 3 fused to GST", "values": [
      {"measurement": "interaction with FGFR1", "setting": "[4]", "value": "interacted with FGFR1"},
      {"measurement": "interaction with FGFR1", "setting": "[4]; listed as GST-OPCML 1+2", "value": "shown to bind"}
    ]},
    {"compound": "COc1cc2ncnc(Nc3ccc(F)c(Cl)c3)c2cc1OCCCN1CCOCC1", "note": "[gefitinib]", "values": [
      {"measurement": "OPCML mediated sensitization", "setting": "[3]; [9]", "value": "no sensitization"}
    ]},
    {"compound": "GST-OPCML D2+3: GST/OPCML domain fusion protein with domains 2 and 3", "values": [
      {"measurement": "interaction with FGFR1", "setting": "[4]", "value": "interacted with FGFR1"}
    ]},
    {"compound": "GST-OPCML D1+2+3: full length OPCML extracellular domain (Ig domains 1-3) fused to GST", "values": [
      {"measurement": "binding of EGFR", "setting": "[5]", "value": "no binding of EGFR"},
      {"measurement": "interaction with FGFR1", "setting": "[4]", "value": "interacted with FGFR1"},
      {"measurement": "interaction with FGFR1", "setting": "[4]; listed as GST-OPCML 1+2+3", "value": "shown to bind"},
      {"measurement": "interaction with FGFR1", "setting": "[4]; listed as GST-OPCML 1-3", "value": "specific binding"},
      {"measurement": "interaction with FGFR1", "setting": "[4]; listed as GST-OPCML D1-3", "value": "interacting specifically"},
      {"measurement": "interaction with HER2", "setting": "[6]", "value": "interacted"},
      {"measurement": "interaction with HER2", "setting": "[6]; listed as GST-OPCML 1+2+3", "value": "binding of HER2"},
      {"measurement": "interaction with HER2", "setting": "[6]; listed as GST-OPCML 1-3", "value": "specific binding"},
      {"measurement": "interaction with HER2", "setting": "[6]; listed as GST-OPCML D1-3", "value": "interacting specifically"}
    ]},
    {"compound": "EGF: human recombinant epidermal growth factor (Promega)", "values": [
      {"measurement": "time of maximal OPCML mRNA expression", "setting": "[7]", "value": 30, "unit": "min"},
      {"measurement": "ovarian cancer cell lines with rapid OPCML RNA and protein expression, of lines treated", "setting": "[8]", "value": "4/4"}
    ]}
  ]
}
